According to US8192962B2, “Processes for detecting toxic substances” (Daikin Industries, Ltd., priority 2001, dated 2012):

Tested on: Genes belonging to other category
Assay: DNA chip mRNA expression in yeast, genes belonging to other category (Table 9)
Format: cell-based, Saccharomyces cerevisiae S288C
Method: Yeast (Saccharomyces cerevisiae S288C (α SUC2mal mel gap2 CUP1)) were incubated at 25° C. on YPD medium (yeast extract 1%, polypepton 2%, glucose 2%). One of toxic chemical substances was added to the cells at logarithmic growth phase, and the cells were further incubated for two hours. Cells were cultured without any chemical substance in the same condition, and were used as control. Concentrations of the chemical substances were defined to inhibit the growth of the yeast but not lead to death.
After completion of the incubation, the culture was centrifuged to collect the cells. To the cells, sodium acetate buffer (50 mM sodium acetate, 10 mM EDTA, 1% SDS) was added, and the mixture was shaken at 65° C. for five minutes, followed by returning to room temperature, and obtaining the supernatant, of which the procedures were repeated two times. To the supernatant, ½ amount of a solution of phenol/chloroform was added, and the mixture was centrifuged to give a supernatant, which was added with an equal amount of chloroform, and the mixture was centrifuged to give a supernatant. To the supernatant, an equal amount of isopropanol containing 0.3 M sodium acetate was added, and the mixture was allowed to stand at room temperature for 30 minutes, after which the mixture was centrifuged to give a sediment of the whole RNAs. Seventy % ethanol was added to the sediment, and the mixture was again centrifuged to give a sediment, which was then dried and dissolved in water. mRNA was isolated from the whole RNAs as followings. In view of the fact that a poly A chain is attached to the 3′ terminus of mRNA, a polynucleotide having a poly T structure which was immobilized on the surface of latex beads was used to trap the mRNA, and then the mRNA was washed and eluted with spine column (Oligotex-dT30<Super>mRNA Purification Kit, Takara). Reverse transcription of the mRNA was conducted with a reverse transcriptase (Super Script II Reverse Transcriptase; catalogue No. 18064-014, GibcoBRL) using fluorescence-labeled nucleotides to give cDNAs that were introduced with Cy3-dUTP or Cy5-dUTP during the reverse transcription.
The labeled cDNAs were dissolved in TE buffer (10mM Tris-HCl/1 mM EDTA, pH8.0), and the solution was dropped on the DNA chip containing the whole genes of yeast (DNA Chip Research Inc. Japan) so that the cDNAs were hybridized on the DNA chip at 65° C. for over 12 hours. The fluoresces intensity of the DNA chip was read with a scanner, and the ratio relative to the fluorescence intensity resulting from the absence of chemical substance was estimated as the following, which is shown in Tables 1 to 9: […]

[Cl][Cd][Cl] [(2), CdCl2]
The level of expressed mRNA in the presence of chemical substance/The level of expressed mRNA in the absence of chemical substance (yeast gene YAR010C): 1.2
The level of expressed mRNA in the presence of chemical substance/The level of expressed mRNA in the absence of chemical substance (yeast gene YBL005W-A): 0.9
The level of expressed mRNA in the presence of chemical substance/The level of expressed mRNA in the absence of chemical substance (yeast gene YBL041W): 1.4
The level of expressed mRNA in the presence of chemical substance/The level of expressed mRNA in the absence of chemical substance (yeast gene YBL043W): 1.2
The level of expressed mRNA in the presence of chemical substance/The level of expressed mRNA in the absence of chemical substance (yeast gene YBL078C): 2.7
The level of expressed mRNA in the presence of chemical substance/The level of expressed mRNA in the absence of chemical substance (yeast gene YBR214W): 2.1
The level of expressed mRNA in the presence of chemical substance/The level of expressed mRNA in the absence of chemical substance (yeast gene YCL020W): 2.5
The level of expressed mRNA in the presence of chemical substance/The level of expressed mRNA in the absence of chemical substance (yeast gene YCL027W): 2.0
The level of expressed mRNA in the presence of chemical substance/The level of expressed mRNA in the absence of chemical substance (yeast gene YCR004C): 1.0
The level of expressed mRNA in the presence of chemical substance/The level of expressed mRNA in the absence of chemical substance (yeast gene YCR071C): 0.7
The level of expressed mRNA in the presence of chemical substance/The level of expressed mRNA in the absence of chemical substance (yeast gene YCR088W): 1.1
The level of expressed mRNA in the presence of chemical substance/The level of expressed mRNA in the absence of chemical substance (yeast gene YDL008W): 1.0
The level of expressed mRNA in the presence of chemical substance/The level of expressed mRNA in the absence of chemical substance (yeast gene YDL238C): 1.0
The level of expressed mRNA in the presence of chemical substance/The level of expressed mRNA in the absence of chemical substance (yeast gene YDR055W): 2.1
The level of expressed mRNA in the presence of chemical substance/The level of expressed mRNA in the absence of chemical substance (yeast gene YDR084C): 0.9
The level of expressed mRNA in the presence of chemical substance/The level of expressed mRNA in the absence of chemical substance (yeast gene YDR085C): 1.8
The level of expressed mRNA in the presence of chemical substance/The level of expressed mRNA in the absence of chemical substance (yeast gene YDR104C): 1.1
The level of expressed mRNA in the presence of chemical substance/The level of expressed mRNA in the absence of chemical substance (yeast gene YDR115W): 0.9
The level of expressed mRNA in the presence of chemical substance/The level of expressed mRNA in the absence of chemical substance (yeast gene YDR259C): 1.0
The level of expressed mRNA in the presence of chemical substance/The level of expressed mRNA in the absence of chemical substance (yeast gene YDR315C): 1.4
The level of expressed mRNA in the presence of chemical substance/The level of expressed mRNA in the absence of chemical substance (yeast gene YDR358W): 1.1
The level of expressed mRNA in the presence of chemical substance/The level of expressed mRNA in the absence of chemical substance (yeast gene YDR388W): 0.7
The level of expressed mRNA in the presence of chemical substance/The level of expressed mRNA in the absence of chemical substance (yeast gene YDR432W): 0.8
The level of expressed mRNA in the presence of chemical substance/The level of expressed mRNA in the absence of chemical substance (yeast gene YDR481C): 2.3
The level of expressed mRNA in the presence of chemical substance/The level of expressed mRNA in the absence of chemical substance (yeast gene YDR510W): 1.3
The level of expressed mRNA in the presence of chemical substance/The level of expressed mRNA in the absence of chemical substance (yeast gene YEL042W): 0.9
The level of expressed mRNA in the presence of chemical substance/The level of expressed mRNA in the absence of chemical substance (yeast gene YEL066W): 2.9
The level of expressed mRNA in the presence of chemical substance/The level of expressed mRNA in the absence of chemical substance (yeast gene YER039C): 1.2
The level of expressed mRNA in the presence of chemical substance/The level of expressed mRNA in the absence of chemical substance (yeast gene YER107C): 0.5
The level of expressed mRNA in the presence of chemical substance/The level of expressed mRNA in the absence of chemical substance (yeast gene YER130C): 1.6
The level of expressed mRNA in the presence of chemical substance/The level of expressed mRNA in the absence of chemical substance (yeast gene YFL022C): 0.9
The level of expressed mRNA in the presence of chemical substance/The level of expressed mRNA in the absence of chemical substance (yeast gene YFL028C): 1.1
The level of expressed mRNA in the presence of chemical substance/The level of expressed mRNA in the absence of chemical substance (yeast gene YFL043C): 1.2
The level of expressed mRNA in the presence of chemical substance/The level of expressed mRNA in the absence of chemical substance (yeast gene YGL158W): 2.8
The level of expressed mRNA in the presence of chemical substance/The level of expressed mRNA in the absence of chemical substance (yeast gene YGL229C): 0.7
The level of expressed mRNA in the presence of chemical substance/The level of expressed mRNA in the absence of chemical substance (yeast gene YGR136W): 1.2
The level of expressed mRNA in the presence of chemical substance/The level of expressed mRNA in the absence of chemical substance (yeast gene YGR189C): 0.9
The level of expressed mRNA in the presence of chemical substance/The level of expressed mRNA in the absence of chemical substance (yeast gene YGR213C): 2.9
The level of expressed mRNA in the presence of chemical substance/The level of expressed mRNA in the absence of chemical substance (yeast gene YGR257C): 0.8
The level of expressed mRNA in the presence of chemical substance/The level of expressed mRNA in the absence of chemical substance (yeast gene YHR004C): 1.1
The level of expressed mRNA in the presence of chemical substance/The level of expressed mRNA in the absence of chemical substance (yeast gene YHR071W): 1.1
The level of expressed mRNA in the presence of chemical substance/The level of expressed mRNA in the absence of chemical substance (yeast gene YHR139C): 4.6
The level of expressed mRNA in the presence of chemical substance/The level of expressed mRNA in the absence of chemical substance (yeast gene YHR142W): 0.8
The level of expressed mRNA in the presence of chemical substance/The level of expressed mRNA in the absence of chemical substance (yeast gene YIL123W): 0.5
The level of expressed mRNA in the presence of chemical substance/The level of expressed mRNA in the absence of chemical substance (yeast gene YIL140W): 1.0
The level of expressed mRNA in the presence of chemical substance/The level of expressed mRNA in the absence of chemical substance (yeast gene YJL073W): 0.8
The level of expressed mRNA in the presence of chemical substance/The level of expressed mRNA in the absence of chemical substance (yeast gene YJL089W): 1.5
The level of expressed mRNA in the presence of chemical substance/The level of expressed mRNA in the absence of chemical substance (yeast gene YJL116C): 1.8
The level of expressed mRNA in the presence of chemical substance/The level of expressed mRNA in the absence of chemical substance (yeast gene YJR004C): 0.8
The level of expressed mRNA in the presence of chemical substance/The level of expressed mRNA in the absence of chemical substance (yeast gene YJR086W): 1.1
